The nature of series [1]: Displacement of [3H](S)-2-(tert-butoxy)-2-(2-methyl-4-(p-tolyl)quinolin-3-yl)acetic acid from LEDGF-binding site of recombinant T124/T125 polymorphic HIV1 integrase by LIDIA assay. On the set-up: species or system Human immunodeficiency virus 1. In general terms: Displacement assays read how much labelled ligand stays bound in the presence of the test substance.
In series [2] the test system is Human immunodeficiency virus 1. Kind of series: Antiviral activity against recombinant HIV1 NLRep-Rluc harbouring polymorphic T124/T125 integrase infected in human MT-2 cells assessed as inhibition of virus growth in presence of fetal bovine serum by measuring luciferase activity after 5 days. The class given is functional, organism-based, MT2.
A short description of series [3]: Cytotoxicity against human MT2 cells assessed as cell viability measured after 4 days by XTT assay. To be noted: time 4 day. The class given is toxicity, cell-based.
Series [4] can be described thus: Metabolic stability in rat liver microsome assessed half life at 0.5 uM by LC-MS/MS analysis. The class given is ADME. Particulars: liver microsomes. In general terms: Liver microsomes are vesicles of endoplasmic reticulum, rich in cytochrome P450 enzymes.
Series [5] in a line: Metabolic stability in human liver microsome assessed half life at 0.5 uM by LC-MS/MS analysis. It is filed as ADME. Particulars: liver microsomes.
Series [6] in a line: Clearance in Sprague-Dawley rat at 1 mg/kg, iv by LC-MS/MS analysis. The class given is ADME, organism-based. Particulars: in vivo.
[7] abbreviates: Human immunodeficiency virus 1, NLRep, MT2, 120 h.

The IC50 is the concentration that gives 50% inhibition. Broadly, the EC50 is the midpoint of the concentration-response curve. What is called CC50 is the concentration that lowers cell viability or growth by half. As a reminder, the half-life is the time in which the quantity being followed falls by half. Read a high half-life as slow decline. One may read the clearance as a measure of how efficiently the substance is removed, as volume per time. A lower clearance goes with inefficient removal.

SMILES strings stand for the structures.

Regarding `Cc1nc(C)c([C@H](OC(C)(C)C)C(=O)O)c(N2CCC(C)(C)CC2)c1-c1ccc(OC2COCC2c2ccc(F)cc2)cc1` (stereo in doubt; 40a), the half-maximal inhibitory concentration (IC50) in series [1] is 4.9 nM. Further, the concentration giving a half-maximal response (EC50) in series [2] (mt2) is 2 nM. Moreover, the CC50 at 96 h in series [3] is no less than 32000 nM.

Take `Cc1nc(C)c([C@H](OC(C)(C)C)C(=O)O)c(N2CCC(C)(C)CC2)c1-c1ccc(OC2CCCC2c2ccc(F)cc2)cc1` (stereo in doubt; 39b): the IC50 in series [1] was 17.7 nM. Further, the 50% effective concentration (EC50) in series [2] (mt2) is 5 nM.

For `Cc1nc(C)c([C@H](OC(C)(C)C)C(=O)O)c(N2CCC(C)(C)CC2)c1-c1ccc(OCCc2ccccn2)cc1`, in series [1], the IC50 worked out at 16.7 nM. Also, the half-maximal effective concentration (EC50) in series [2] (setting [7]) was found to be 0.9 nM. The 50% cytotoxic concentration (CC50) at 96 h in series [3] is no less than 25000 nM. In addition, the half-life at 0.5 µM was found to be 1.02 h in series [4] and 0.5 h in series [5].

As for `COc1cccc(CCOc2ccc(-c3c(C)nc(C)c([C@H](OC(C)(C)C)C(=O)O)c3N3CCC(C)(C)CC3)cc2)c1`, the 50% inhibitory concentration (IC50) in series [1] was determined as 15.9 nM. Moreover, the concentration giving a half-maximal response (EC50) in series [2] (setting [7]) was 1.7 nM. The half-maximal cytotoxic concentration (CC50) at 96 h in series [3] was no less than 33500 nM. Besides, the half-life at 0.5 µM in series [4] and in series [5] was greater than 2 h each time.

On to `Cc1nc(C)c([C@H](OC(C)(C)C)C(=O)O)c(N2CCC(C)(C)CC2)c1-c1ccc(OC2CCCC2c2ccc(F)cc2)cc1` (stereo in doubt; 39a), for which the half-inhibitory concentration (IC50) in series [1] stood at 35.5 nM. In addition, the EC50 in series [2] (mt2) was 12 nM. For the same molecule, the cytotoxic concentration (CC50) at 96 h in series [3] is no less than 32000 nM.

As to `Cc1nc(C)c([C@H](OC(C)(C)C)C(=O)O)c(N2CCC(C)(C)CC2)c1-c1ccc(Oc2ccccc2)cc1`, in series [1], the IC50 came out at 53.5 nM. Moreover, the EC50 in series [2] (setting [7]) was 37.5 nM. The CC50 at 96 h in series [3] was no less than 20000 nM.

Take `Cc1nc(C)c(CCOc2ccc(-c3c(C)nc(C)c([C@H](OC(C)(C)C)C(=O)O)c3N3CCC(C)(C)CC3)cc2)s1`: the IC50 in series [1] was determined as 11.7 nM. Moreover, the EC50 in series [2] (setting [7]) turned out to be 1.1 nM. Besides, the CC50 at 96 h in series [3] was no less than 25000 nM. Moreover, the half-life at 0.5 µM in series [4] was greater than 2 h; in series [5] it was 0.917 h. In series [6], this molecule showed a clearance of 30.1 mL/min/kg.

On to `Cc1nc(C)c([C@H](OC(C)(C)C)C(=O)O)c(N2CCC(C)(C)CC2)c1-c1ccc(-c2ccccc2)cc1`, for which, in series [1], the IC50 worked out at 30.7 nM. Moreover, the EC50 in series [2] (setting [7]) was 31.2 nM. Further, in series [3], the cytotoxic concentration (CC50) at 96 h was no less than 20000 nM.

As for `Cc1ccc(CCOc2ccc(-c3c(C)nc(C)c([C@H](OC(C)(C)C)C(=O)O)c3N3CCC(C)(C)CC3)cc2)cc1`, the concentration for half-maximal inhibition (IC50) in series [1] came out at 15.5 nM. Besides, the EC50 in series [2] (setting [7]) came to 14.7 nM. Besides, the CC50 at 96 h in series [3] was no less than 33500 nM.

For `Cc1nc(CCOc2ccc(-c3c(C)nc(C)c([C@H](OC(C)(C)C)C(=O)O)c3N3CCC(C)(C)CC3)cc2)cs1`, the IC50 in series [1] was 32.6 nM. In addition, the EC50 in series [2] (setting [7]) stood at 5 nM. Also, the half-maximal cytotoxic concentration (CC50) at 96 h in series [3] is no less than 25000 nM. Also, the half-life at 0.5 µM was found to be 1.75 h in series [4] and 0.683 h in series [5].

On to `Cc1nc(C)c([C@H](OC(C)(C)C)C(=O)O)c(N2CCC(C)(C)CC2)c1-c1ccccc1`, for which the IC50 in series [1] amounted to 55.5 nM. Moreover, the 50% effective concentration (EC50) in series [2] (setting [7]) was 67 nM.

Consider `Cc1nc(C)c([C@H](OC(C)(C)C)C(=O)O)c(N2CCC(C)(C)CC2)c1-c1ccc(OCCc2ccncc2)cc1`, for which, in series [2] (setting [7]), the EC50 is 0.6 nM. The 50% cytotoxic concentration (CC50) at 96 h in series [3] is no less than 25000 nM.

Regarding `Cc1nc(C)c([C@H](OC(C)(C)C)C(=O)O)c(N2CCC(C)(C)CC2)c1-c1ccc(OCCc2ccccc2)cc1`, in series [1], the IC50 was found to be 9.4 nM. For the same molecule, in series [2] (setting [7]), the EC50 is 2.3 nM. Further, the CC50 at 96 h in series [3] is no less than 20000 nM. Further, the half-life at 0.5 µM in series [4] and in series [5] was greater than 2 h throughout.

Consider `Cc1nc(C)c([C@H](OC(C)(C)C)C(=O)O)c(N2CCC(C)(C)CC2)c1-c1ccc(NCCc2ccc(F)cc2)cc1`, for which the IC50 in series [1] was 18 nM. Further, the EC50 in series [2] (setting [7]) was found to be 5.4 nM. Moreover, the CC50 at 96 h in series [3] is no less than 32000 nM. Also, the half-life at 0.5 µM in series [4] turned out to be 1.83 h; in series [5], 0.683 h. The same molecule yielded a clearance in series [6] of 12 mL/min/kg.

Take `Cc1nc(C)c([C@H](OC(C)(C)C)C(=O)O)c(N2CCC(C)(C)CC2)c1-c1ccc(OCCCc2ccc(F)cc2)cc1`: in series [1], the IC50 was 35.5 nM. Besides, the EC50 in series [2] (setting [7]) was found to be 11.9 nM. For the same molecule, the CC50 at 96 h in series [3] is no less than 32000 nM. Moreover, the half-life at 0.5 µM in series [4] and in series [5] was greater than 2 h throughout.
